Results on three compounds are retold here after US11766415B2, “Reducing triglyceride levels and cortisol levels with pharmaceutical preparations” (GLYKON TECHNOLOGIES GROUP, LLC, priority 2020, dated 2023).

The test system of one data set is Cortisol. The data set can be described thus: Blood cortisol before and 90 minutes after administration. In kind it is in vivo, human. On the procedure: (§1) Subject 5 was a person, weighing approximately 285 pounds and with a normal fasting blood sugar level of 115-120. First, blood was drawn from Subject 5 and levels of various biomolecules were measured. Next, Subject 5 was administered 16.66 ml of the Example 1 formulation on an empty stomach, i.e. wherein with each 16.66 ml the subject received 5,000 mg of the potassium-magnesium (−)-hydroxycitric acid salt, corresponding to 3490 mg of (−)-hydroxycitric acid. 90 minutes after the administration, blood was drawn from Subject 5 and levels of the various biomolecules were remeasured.
(§2) Subject 6 was administered 16.66 ml of the Example 1 formulation on an empty stomach, i.e. wherein with each 16.66 ml the subject received 5,000 mg of the potassium-magnesium (−)-hydroxycitric acid salt, corresponding to 3490 mg of (−)-hydroxycitric acid. 90 minutes after the administration, blood was drawn from Subject 6 and levels of the various biomolecules were remeasured.

The next data set has as its system Triglycerides. The data set can be described thus: Blood triglycerides before and 90 minutes after administration. The data set is classed as in vivo, human. On the procedure: as §1, §2
The target of a further data set is T1, pancreatic alpha-amylase (Homo sapiens, UniProt P04746).
T1 sequence (P04746 16-511): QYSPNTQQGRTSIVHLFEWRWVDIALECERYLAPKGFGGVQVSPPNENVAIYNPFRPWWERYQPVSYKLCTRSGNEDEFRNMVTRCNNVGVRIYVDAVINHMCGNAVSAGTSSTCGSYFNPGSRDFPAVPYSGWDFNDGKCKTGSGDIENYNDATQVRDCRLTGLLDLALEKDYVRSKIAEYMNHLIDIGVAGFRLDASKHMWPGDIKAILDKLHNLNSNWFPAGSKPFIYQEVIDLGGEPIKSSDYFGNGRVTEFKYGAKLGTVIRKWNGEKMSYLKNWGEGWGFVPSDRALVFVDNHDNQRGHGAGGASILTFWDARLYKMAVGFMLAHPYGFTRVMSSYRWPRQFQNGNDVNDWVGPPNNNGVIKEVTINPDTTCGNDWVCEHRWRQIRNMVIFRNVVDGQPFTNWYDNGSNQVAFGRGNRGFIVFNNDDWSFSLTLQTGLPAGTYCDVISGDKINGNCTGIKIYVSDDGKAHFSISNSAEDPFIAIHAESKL
Conditions: background statement; in vitro; cited from earlier work.

In data set [1] the test system is intestinal alpha-glucosidase. Conditions: background statement; in vitro; cited from earlier work.
Data set [2] deals with blood hemoglobin and oxygen saturation. Description: fNIRS measurement of blood hemoglobin and oxygen saturation after oral administration. In kind it is in vivo, human. Conditions: conclusion, summary over subjects. On the procedure:
Subjects 1-4 were orally administered the formulation of Example 1. The Subjects were given either one or two administrations of 8.33 ml of the aqueous formulation of Example 1 on an empty stomach, i.e. wherein with each 8.33 ml the subject received 2,500 mg of the potassium-magnesium (−)-hydroxycitric acid salt, corresponding to 1745 mg of (−)-hydroxycitric acid.
fNIRS testing (functional Near Infrared Spectroscopy) was used to measure blood hemoglobin and oxygen saturation. fNIRS can be used to determine real-time peripheral and cerebral hemodynamic responses. For example, relative changes in HbR (deoxygen saturation), HbO (oxygen saturation), and HbT (total hemoglobin concentration), etc. can be determined via application of Modified Beer Lambert Law. HbR, Hb=deoxygen saturation (shown as the thinnest and bottom dashed line in FIG. 1) HbO, HbO2=oxygen saturation (shown as the medium-thickness and middle line in FIG. 1) HbT=total hemoglobin concentration (shown as the darkest, thickest and top line in FIG. 1). On the graphs, time is in seconds.

The test system of the next data set is Ketones. Description: Blood ketones before and 90 minutes after administration. In kind it is in vivo, human. The method, then:
as §1

The next data set concerns blood sugar. The data set can be described thus: Blood sugar levels after HCA administration. The data set is classed as in vivo, human. Conditions: conclusion, summary; in some cases only transient. On the procedure:
as §1, with “remeasured. […] It is hypothesized that this transient elevation is due to Randall's Cycle. […] In support of this explanation, it is noted that this subject had previously used HCA formulations with the result of keeping their otherwise elevated fasting blood glucose levels in the low- to mid-90s with consistent usage.” for “remeasured.”

The next data set deals with T2, ATP citrate lyase (Homo sapiens, UniProt P53396).
T2 sequence (P53396 1-1101): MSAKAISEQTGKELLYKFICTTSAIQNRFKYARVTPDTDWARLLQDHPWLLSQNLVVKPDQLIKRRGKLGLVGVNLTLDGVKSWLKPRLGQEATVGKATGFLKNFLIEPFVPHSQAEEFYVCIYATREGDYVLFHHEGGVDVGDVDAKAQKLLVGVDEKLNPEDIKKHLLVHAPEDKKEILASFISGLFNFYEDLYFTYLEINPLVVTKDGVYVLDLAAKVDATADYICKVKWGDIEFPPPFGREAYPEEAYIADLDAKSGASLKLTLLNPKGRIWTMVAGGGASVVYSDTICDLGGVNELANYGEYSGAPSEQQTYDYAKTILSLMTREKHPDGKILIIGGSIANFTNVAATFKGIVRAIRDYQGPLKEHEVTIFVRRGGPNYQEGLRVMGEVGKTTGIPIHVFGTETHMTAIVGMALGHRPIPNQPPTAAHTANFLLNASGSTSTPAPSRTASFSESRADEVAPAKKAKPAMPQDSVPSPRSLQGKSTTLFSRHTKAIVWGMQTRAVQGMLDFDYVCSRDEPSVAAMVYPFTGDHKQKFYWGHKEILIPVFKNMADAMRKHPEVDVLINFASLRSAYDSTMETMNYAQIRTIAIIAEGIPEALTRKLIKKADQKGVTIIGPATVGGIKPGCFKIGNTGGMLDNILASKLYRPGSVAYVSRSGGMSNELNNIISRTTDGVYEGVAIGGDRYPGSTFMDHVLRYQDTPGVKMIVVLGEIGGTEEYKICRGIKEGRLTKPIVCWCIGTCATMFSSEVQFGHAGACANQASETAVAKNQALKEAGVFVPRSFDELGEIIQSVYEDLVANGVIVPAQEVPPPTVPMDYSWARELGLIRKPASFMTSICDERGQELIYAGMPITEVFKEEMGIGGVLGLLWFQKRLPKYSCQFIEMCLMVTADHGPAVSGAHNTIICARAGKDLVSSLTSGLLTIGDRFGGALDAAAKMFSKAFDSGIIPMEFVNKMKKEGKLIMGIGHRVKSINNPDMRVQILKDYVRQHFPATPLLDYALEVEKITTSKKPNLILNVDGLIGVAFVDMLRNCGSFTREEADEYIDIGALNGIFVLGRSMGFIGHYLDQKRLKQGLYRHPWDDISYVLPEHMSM
Conditions: background statement; cited from earlier work.

The mark [3] stands for this setting: a subject (Example 3), 5,000 mg salt (3,490 mg (−)-hydroxycitric acid), 90 minutes later.
Setting [4] is: conclusion, summary over subjects.

For the compound “potassium-magnesium salt of (−)-hydroxycitric acid”, the “decrease in cortisol level” value in the data set with Cortisol (setting [3]) was 20%. In the data set on Triglycerides (setting [3]), the “decrease in triglyceride level” value stood at 67%.

As for `O=C(O)C[C@](O)(C(=O)O)[C@H](O)C(=O)O` [(2S,3R)-HCA], on pancreatic alpha-amylase, the “inhibition of pancreatic alpha-amylase” value is listed as “inhibits”. Moreover, in data set [1], the “inhibition of intestinal alpha-glucosidase” value is reported as “inhibits”.

On to `O=C(O)CC(O)(C(=O)O)C(O)C(=O)O` (stereo not drawn) [HCA, 1,2-dihydroxypropane-1,2,3-tricarboxylic acid], for which, in data set [2], the blood hemoglobin entry is recorded as “increased” and the oxygen saturation result is “increased”. Besides, the cortisol entry with Cortisol (setting [4]) is on record as “decreased”. In the data set on Triglycerides (setting [4]), the triglycerides result is “decreased”. Moreover, the “Ketones Result” value with Ketones (Subject 5, 5,000 mg salt, empty stomach, 90 mins after administration, before 0.6) turned out to be 0.5. Also, the levels of ketones entry in the data set with Ketones (conclusion, summary) is listed as “relatively stable or slightly lower”. The glucose entry with blood sugar is “increased”. Besides, the “inhibition of ATP citrate lyase” value at ATP citrate lyase is recorded as “competitive inhibitor”.
